Test results reported in US10844044B2 (Vanderbilt University, priority 2018, dated 2020).
Like-named read-outs stand apart in the source and are kept apart here.

Molecular target: WDR5 (Homo sapiens (Human), UniProt P61964)
Assay: TR-FRET binding assay (displacement of 10mer-Thr-FAM probe from WDR5)
[1] = read-out: Ki for Inhibition of WDR5 by TR-FRET assay, TR-FRET, 10mer-Thr-FAM probe, WDR5-His tag 2 nM, pH 7.0
[2] = read-out: Ki for Inhibition of WDR5 by TR-FRET assay

| SMILES | Ki [1] | further results |
| --- | --- | --- |
| COc1cc(CNC(=O)c2cc(Cn3ccn(C)c3=N)cc(OCC3CC3)c2)cc(OC)c1 [Example 178, 3-(Cyclopropylmethoxy)-N-(3,5-dimethoxybenzyl)-5-((2-imino-3-methyl-2,3-dihydro-1H-imidazol-1-yl)methyl)benzamide] | 3.3 nM |  |
| Cc1ccnc(C(NC(=O)c2cc(Cn3ccn(C)c3=N)cc(-c3ccnn3C)c2)C2CC2)c1 (centres unmarked) [Example 12, N-(Cyclopropyl(4-methylpyridin-2-yl)methyl)-3-((2-imino-3-methyl-2,3-dihydro-1H-imidazol-1-yl)methyl)-5-(1-methyl-1H-pyrazol-5-yl)benzamide] | 1.2 nM |  |
| Cc1cc(-c2cc(Cn3ccn(C)c3=N)cc(C(=O)NCc3ccc(Cl)c(C)c3)c2)ccn1 [Example 18, N-(4-Chloro-3-methylbenzyl)-3-((2-imino-3-methyl-2,3-dihydro-1H-imidazol-1-yl)methyl)-5-(2-methylpyridin-4-yl)benzamide] | 3.5 nM |  |
| CCOc1cc(Cn2ccn(C)c2=N)cc(C(=O)NCc2ccc(Cl)c(C)c2)c1 [Example 183, N-(4-Chloro-3-methylbenzyl)-3-ethoxy-5-((2-imino-3-methyl-2,3-dihydro-1H-imidazol-1-yl)methyl)benzamide] | 0.71 nM |  |
| Cc1ccnc(C(NC(=O)c2cc(Cn3ccn(C)c3=N)cc(-c3ccc(F)cc3C(F)(F)F)n2)C2CC2)c1 (centres unmarked) [Example 101, N-(Cyclopropyl(4-methylpyridin-2-yl)methyl)-6-(4-fluoro-2-(trifluoromethyl)phenyl)-4-((2-imino-3-methyl-2,3-dihydro-1H-imidazol-1-yl)methyl)picolinamide] | 0.45 nM |  |
| COc1cc(CN(C)C(=O)c2cc(Cn3ccn(C)c3=N)cc(-c3ccnc(C)c3)c2)cc(OC)c1 [Example 48, N-(3,5-dimethoxybenzyl)-3-((2-imino-3-methyl-2,3-dihydro-1H-imidazol-1-yl)methyl)-N-methyl-5-(2-methylpyridin-4-yl)benzamide] | 26 nM |  |
| N=c1occn1Cc1cc(C(=O)N[C@H](c2ccc(Cl)c(Cl)c2)C2CC2)cc(-c2ccc(F)cc2OC(F)F)c1 [Example 270, (S)—N-(Cyclopropyl(3,4-dichlorophenyl)ethyl)-2′-(difluoromethoxy)-4′-fluoro-5-((2-iminooxazol-3(2)-yl)methyl)-[1,1′-biphenyl]-3-carboxamide] | 0.18 nM |  |
| Cn1ccn(Cc2cc(C(=O)N[C@H](c3ccc(Cl)c(Cl)c3)C3CC3)cc(-c3ccc(F)cc3OC(F)F)c2)c1=N [Example 150, (S)—N-(Cyclopropyl(3,4-dichlorophenyl)methyl)-2′-(difluoromethoxy)-4′-fluoro-5-((2-imino-3-methyl-2,3-dihydro-1H-imidazol-1-yl)methyl)-[1,1′-biphenyl]-3-carboxamide] | 0.13 nM |  |
| Cc1ccnc(C(NC(=O)c2cc(Cn3ccoc3=N)cc(-c3ncccc3C(F)(F)F)c2)C2CC2)c1 (centres unmarked) [Example 237, N-(Cyclopropyl(4-methylpyridin-2-yl)methyl)-3-((2-iminooxazol-3(2H)-yl)methyl)-5-(3-(trifluoromethyl)pyridin-2-yl)benzamide] | 7.5 nM |  |
| COc1cc(CNC(=O)c2cc(Cn3ccn(C)c3=N)cc(-c3ccc(F)cc3C(F)(F)F)n2)cc(OC)c1 [Example 100, N-(3,5-Dimethoxybenzyl)-6-(4-fluoro-2-(trifluoromethyl)phenyl)-4-((2-imino-3-methyl-2,3-dihydro-1-imidazol-1-yl)methyl)picolinamide] | 0.71 nM |  |
| Cc1cc(F)ccc1-c1cc(Cn2ccn(C)c2=N)cc(C(=O)N[C@H](c2ccc(F)c(C)n2)C2CC2)c1 [Example 173, (S)-1N-(Cyclopropyl(5-fluoro-6-methylpyridin-2-yl)methyl)-4′-fluoro-5-((2-imino-3-methyl-2,3-dihydro-1H-imidazol-1-yl)methyl)-2′-methyl-[1,1′-biphenyl]-3-carboxamide] | 0.89 nM |  |
| N=c1n(Cc2cc(C(=O)N[C@H](c3ccc(Cl)c(Cl)c3)C3CC3)cc(-c3ccc(F)cc3OC(F)F)c2)ccn1C1CC1 [Example 151, (S)—N-(Cyclopropyl(3,4-dichlorophenyl)methyl)-5-((3-cyclopropyl-2-imino-2,3-dihydro-1H-imidazol-1-yl)methyl)-2′-(difluoromethoxy)-4′-fluoro-[1,1′-biphenyl]-3-carboxamide] | 0.59 nM |  |
| Cc1cc([C@@H](NC(=O)c2cc(Cn3ccn(C)c3=N)cc(N3CCC[C@H]3C)c2)C2CC2)ccc1F [Example 226, N—((S)-Cyclopropyl(4-fluoro-3-methylphenyl)methyl)-3-((2-imino-3-methyl-2,3-dihydro-1H-imidazol-1-yl)methyl)-5-((R)-2-methylpyrrolidin-1-yl)benzamide] | 7.1 nM |  |
| C[C@H](NC(=O)c1cc(Cn2ccoc2=N)cc(-c2cccnc2C(F)(F)F)c1)c1ccc(F)c(Cl)c1 [Example 257, (S)—N-(1-(3-Chloro-4-fluorophenyl)ethyl)-3-((2-iminooxazol-3(2H)-yl)methyl)-5-(2-(trifluoromethyl)pyridin-3-yl)benzamide] |  | Ki [2]: 2 nM |
| CCn1cc(-c2cc(Cn3ccn(C4CC4)c3=N)cc(C(=O)NCc3ccc(F)c(C)c3)c2)c(C(F)(F)F)n1 [Example 197, 3-((3-Cyclopropyl-2-imino-2,3-dihydro-1H-imidazol-1-yl)methyl)-5-(1-ethyl-3-(trifluoromethyl)-1H-pyrazol-4-yl)-N-(4-fluoro-3-methylbenzyl)benzamide] |  | Ki [2]: < 0.1 nM |
| N=C1SCCN1Cc1cc(C(=O)N[C@H](c2ccc(F)c(F)c2)C2CC2)cc(-c2cccnc2C(F)(F)F)c1 [Example 318, (S)—N-(Cyclopropyl(3,4-difluorophenyl)methyl)-3-((2-iminothiazolidin-3-yl)methyl)-5-(2-(trifluoromethyl)pyridin-3-yl)benzamide] |  | Ki [2]: 0.29 nM |
| Cc1cc([C@@H](NC(=O)c2cc(Cn3ccn(C)c3=N)cc(N3CCC[C@H]3C(F)(F)F)c2)C2CC2)ccc1F [Example 223] | 1.3 nM |  |
| Cc1cc([C@@H](NC(=O)c2cc(Cn3ccoc3=N)cc(C3CC3)c2)C2CC2)ccc1F [Example 265, (S)-3-cyclopropyl-N-(cyclopropyl(4-fluoro-3-methylphenyl)methyl)-5-((2-iminooxazol-3(2H)-yl)methyl)benzamide] | 0.78 nM |  |
| Cc1cc([C@@H](NC(=O)c2cc(Cn3ccn(C)c3=N)cc(-c3ccnc4c3CCC4)c2)C2CC2)ccc1F [Example 136, (S)—N-(Cyclopropyl(4-fluoro-3-methylphenyl)methyl)-3-(6,7-dihydro-5H-cyclopenta[b]pyridin-4-yl)-5-((2-imino-3-methyl-2,3-dihydro-1H-imidazol-1-yl)methyl)benzamide] | < 0.1 nM |  |
| COc1cc(CNC(=O)c2cc(Cn3ccn(-c4ccccc4)c3=N)cc(-c3ccc(F)cc3C)c2)cc(OC)c1 [Example 133, N-(3,5-Dimethoxybenzyl)-4′-fluoro-5-((2-imino-3-phenyl-2,3-dihydro-1H-imidazol-1-yl)methyl)-2′-methyl-[1,1′-biphenyl]-3-carboxamide] |  | Ki: > 33 nM |
| Cc1cc([C@@H](NC(=O)c2cc(CN3CCSC3=N)cc(-c3cn(CC(C)C)nc3C(F)(F)F)c2)C2CC2)ccc1F [Example 313, (S)—N-(Cyclopropyl(4-fluoro-3-methylphenyl)methyl)-3-((2-iminothiazolidin-3-yl)methyl)-5-(1-isobutyl-3-(trifluoromethyl)-1H-pyrazol-4-yl)benzamide] | 1.2 nM |  |
| Cc1cc([C@@H](NC(=O)c2cc(Cn3cnn(C)c3=N)cc(-c3cn(C)nc3C(F)(F)F)c2)C2CC2)ccc1F [Example 363, (S)—N-(Cyclopropyl(4-fluoro-3-methylphenyl)methyl)-3-((5-imino-1-methyl-1,5-dihydro-4H-1,2,4-triazol-4-yl)methyl)-5-(1-methyl-3-(trifluoromethyl)-H-pyrazol-4-yl)benzamide] | < 0.1 nM |  |
| CCOc1cc(Cn2ccn(C)c2=N)cc(C(=O)N[C@@H](C)c2ccc(F)c(C)c2)c1 [Example 176, (S)-3-Ethoxy-N-(1-(4-fluoro-3-methylphenyl)ethyl)-5-((2-imino-3-methyl-2,3-dihydro-1H-imidazol-1-yl)methyl)benzamide] | 0.5 nM |  |
| Cc1cc(CNC(=O)c2cc(Cn3ccn(C)c3=N)cc(-c3cnc(F)cc3C)c2)ccc1Cl [Example 79, N-(4-Chloro-3-methylbenzyl)-3-(6-fluoro-4-methylpyridin-3-yl)-5-((2-imino-3-methyl-2,3-dihydro-1H-imidazol-1-yl)methyl)benzamide] | 4.3 nM |  |
| Cc1cc([C@@H](NC(=O)c2cc(Cn3ccccc3=N)cc(-c3cc(C(F)(F)F)nn3C)c2)C2CC2)ccc1F [Example 346, (S)—N-(Cyclopropyl(4-fluoro-3-methylphenyl)methyl)-3-((2-iminopyridin-(2H)-yl)methyl)-5-(1-methyl-3-(trifluoromethyl)-1H-pyrazol-5-yl)benzamide] | 1.6 nM |  |
| C[C@H](NC(=O)c1cc(Cn2ccn(C)c2=N)cc(-c2cccnc2C(F)(F)F)c1)c1ccc(C(F)(F)F)cc1 [Example 126, (S)-3-((2-Imino-3-methyl-2,3-dihydro-1H-imidazol-1-yl)methyl)-N-(1-(4-(trifluoromethyl)phenyl)ethyl)-5-(2-(trifluoromethyl)pyridin-3-yl)benzamide] | 2.5 nM |  |
| Cc1cc([C@@H](NC(=O)c2cc(Cn3ccn(C)c3=N)cc(C3(C(F)(F)F)CC3)c2)C2CC2)ncc1F [Example 218, (S)—N-(cyclopropyl(5-fluoro-4-methylpyridin-2-yl)methyl)-3-((2-imino-3-methyl-2,3-dihydro-1H-imidazol-1-yl)methyl)-5-(1-(trifluoromethyl)cyclopropyl)benzamide] | < 0.1 nM |  |
| COc1ccnc(CNC(=O)c2cc(Cn3ccn(C)c3=N)cc(-c3cccnc3C)c2)c1 [Example 43, 3-((2-Imino-3-methyl-2,3-dihydro-1H-imidazol-1-yl)methyl)-N-((4-methoxypyridin-2-yl)methyl)-5-(2-methylpyridin-3-yl)benzamide] | 8420 nM |  |
| Cc1cc(-c2cc(Cn3ccn(C)c3=N)cc(C(=O)NC(C3CC3)C3CC3)c2)ccn1 [Example 49, N-(Dicyclopropylmethyl)-3-((2-imino-3-methyl-2,3-dihydro-1H-imidazol-1-yl)methyl)-5-(2-methylpyridin-4-yl)benzamide] | 22 nM |  |
